In general, surface tension refers to the work needed to enlarge the surface of a liquid by unit area.

Holding throughout (format): physicochemical
Series [1] is described as follows: Storage stability of lyophilized formulation, HPLC of content and decomposed materials. Here is the method:
After the formulation as prepared according to Example 1 was stored at 50° C. for 2 months, the amounts of decomposed materials produced by hydrolysis were determined and compared. Typical decomposed materials are:
The relationship of the contents of compound 1, the amounts of the decomposed materials, and the added amounts of D-mannitol comprised in between the formulation before the storage and that after the storage at 50° C. for 2 months, is shown in Table 2. The determination was conducted using high performance liquid chromatography (HPLC). The determination conditions of HPLC are as shown below: • Device: Waters 600E,484,712 wisp,74 1,FD20A • Column: J'sphere ODS-L80, S-4μm, 80A 150×4.6 mmφ • Moving phase: water/acetonitrile/acetic acid=100/100/1 • Flow rate: 1.0 ml/min • Injected volume: • 20 μL (at the time for determination of impure materials) • 10 μL (at the time for determination of compound 1) • Detection wavelength • 275 nm • Detection sensibility (AUFS): • 0.64 (at the time for determination of impure materials) • 0.20 (at the time for determination of compound 1) • Solvent for dilution of samples: • water/acetonitrile/acetic acid=100/100/1 • Concentration of samples • 1 mg/ml (at the time for determination of impure materials) • 60.0 μg/ml (at the time for determination of compound 1)

The nature of series [2]: Determination of surface tension by Wilhelmy method. Here is the method:
A compound to be determined that has been weighed is dissolved or suspended in a defined amount of a distilled water. As such, samples of aqueous solutions to be tested containing the compound at various concentrations are prepared, and each of the solutions is adjusted to be 50 ml aliquots.
Surface tension-measuring device (Kruess Inc., Type K12) and the personal computer for control and analysis are started, and a software for determining surface tension (Kruess Inc., K122) is launched. The determination site of the device is subjected to the circulation of the water from a thermostatic chamber to keep the temperature constant at 25° C. […]
Forty ml of a distilled water is poured into the vessel that have been washed, and the vessel is placed into the surface tension-measuring device. […] In this condition, surface tensions are determined. […] When the value of surface tension as determined one minute later is almost constant, then the value is recorded and the determination is stopped.
After the blank determination, 40 ml of a sample of aqueous solutions is poured into the vessel that have been washed, and the vessel is placed into the surface tension-measuring device. […] In this condition, surface tensions are determined. […] When the value of surface tension as determined one minute later is almost constant, then the value is recorded and the determination is stopped. […]

Series [3] in a line: Ross-Miles Foaming Test (foaming vs pH). The following applies: 0.1% w/w in water for injection, 25° C., ISO 696-1975. Here is the method:
Compound 1 was dissolved in a water for injection (0.1% w/w), and the solution was quantitatively determined for foaming by Ross-Miles Foaming Test. Ross-Miles Foaming Test was conducted according to the method as defined in International Standard ISO 696-1975 except that the determination temperature was set 25° C.

Setting [4] is: D-mannitol 0% of the weight of compound 1.
Where [5] appears, read: D-mannitol 25% of the weight of compound 1.
[6] abbreviates: D-mannitol 50% of the weight of compound 1.
The mark [7] stands for this setting: D-mannitol 100% of the weight of compound 1.

SMILES strings stand for the structures.

As to `CC1(C)CC[C@]2(C(=O)[O-])CC[C@]3(COC(=O)/C=C/c4cc(O)ccc4NC(=O)/C=C/C(=O)[O-])C(=CC[C@@H]4[C@@]5(C)CCC(=O)C(C)(C)[C@@H]5CC[C@]43C)[C@@H]2C1.[Na+].[Na+]` [compound 1], in series [1] (setting [4]), the “Content of compound 1 (after storage at 50° C. for 2 months)” value (shortened to “Content”) is given as 97.1 ± 0.1%; the “amount of Other related compounds, After storage at 50° C. for 2 months” value (“amount of Other related compounds … for 2 months” for short) is listed as 0.66 ± 0.14%; the “amount of Other related compounds, Before storage” value amounted to 0.32 ± 0.02%; the “amount of decomposed material compound A, After storage at 50° C. for 2 months” value was determined as 1.71 ± 0.08%. Moreover, in series [1] (setting [4]), the “amount of decomposed material compound A, Before storage” value was determined as 0.26 ± 0.02%. In addition, in series [1] (setting [5]), the “Content” value amounted to 97.9 ± 0.4%; the “amount of Other related compounds … for 2 months” value turned out to be 0.87 ± 0.02%; the “amount of Other related compounds, Before storage” value is recorded as 0.33 ± 0.03%; the “amount of decomposed material compound A, After storage at 50° C. for 2 months” value is listed as 0.44 ± 0.01%. The “amount of decomposed material compound A, Before storage” value in series [1] (setting [5]) is on record as 0.13 ± 0.01%. Further, in series [1] (setting [6]), the “Content” value is recorded as 98.0 ± 0.1%; the “amount of Other related compounds … for 2 months” value was 0.89 ± 0.05%; the “amount of Other related compounds, Before storage” value was found to be 0.32 ± 0.02%; the “amount of decomposed material compound A, After storage at 50° C. for 2 months” value worked out at 0.24 ± 0.01%. Moreover, the “amount of decomposed material compound A, Before storage” value in series [1] (setting [6]) is recorded as 0.11 ± 0.01%. In series [1] (setting [7]), the “Content” value came to 98.3 ± 0.1%; the “amount of Other related compounds … for 2 months” value worked out at 1.24 ± 0.05%; the “amount of Other related compounds, Before storage” value turned out to be 0.31 ± 0.01%; the “amount of decomposed material compound A, After storage at 50° C. for 2 months” value was found to be 0.23 ± 0.02%. Also, the “amount of decomposed material compound A, Before storage” value in series [1] (setting [7]) is 0.11 ± 0.01%. In addition, in series [2] (37.6 mM solution of compound 1 in water, 25° C., Wilhelmy method), the surface tension worked out at 53.9±0.2 mN/m. In addition, the “decrease in surface tension, pH 9.5 vs pH 7 to 7.5” value in series [2] (aqueous solutions at various concentrations, pH 9.5 adjusted with sodium hydroxide, FIG. 1) was “the decrease in the surface tension is inhibited at pH 9.5 more than that at pH7 to 7.5”. Moreover, in series [3], the “foaming by Ross-Miles Foaming Test in relation to pH” value is “the foaming was inhibited depending on the increase in pH”.

These data come from patent US7645793B2, “Injectable pharmaceutical formulations” (Shionogi & Co., Ltd., priority 2001, dated 2010).
